Measurements published in patent publication US9540348B2, “Imidazole-1-yl pyrimidine derivatives, or pharmacutically acceptable salt thereof, and pharmaceutic composition comprising the same as an active ingredient” (Industry-University Cooperation Foundation Hanyang …, priority 2015, dated 2017).
Entries after “also recorded” stand apart in the source; their conditions may differ.

Columns and labels:
[1] = system: A375P human melanoma cell line; experiment: Antiproliferative activity to A375P human melanoma cell line; type: cell-based; details: for GI50: A375P human melanoma cell line, read-out: A375P (GI50, Unit: μM); for potency against A375P, in words: A375P cell line, comparison with Sorafenib
Description: (§1) The antiproliferative activity of the compounds of Examples to A375P human melanoma cell line and U937 human leukemic monocyte lymphoma cell line are evaluated and listed in the following Table 1.

[2] = system: U937 human leukemic monocyte lymphoma cell line; experiment: Antiproliferative activity to U937 human leukemic monocyte lymphoma cell line; type: cell-based; details: for GI50: U-937, U937 human leukemic monocyte lymphoma cell line, read-out: U937 (GI50, Unit: μM); for potency against U937, in words: U937 cell line, comparison with Sorafenib
Description: as §1

SMILES | GI50 [1] | GI50 [2] | potency against A375P, in words [1] | potency against U937, in words [2]
Cc1cc(C)cc(C(=O)Nc2cccc(Cc3nccn3-c3ccnc(NC[C@H](C)O)n3)c2)c1 [Example 2, (S)—N-(3-((1-(2-((2-hydroxypropyl)amino)pyrimidin-4-yl)-1H-imidazol-2-yl)methyl)phenyl)-3,5-dimethylbenzamide] |  | 16.8 µM |  | 
C[C@H](O)CNc1nccc(-n2ccnc2Cc2cccc(NC(=O)c3cnn(-c4ccccc4)c3C(F)(F)F)c2)n1 [Example 5, (S)—N-(3-((1-(2-((2-hydroxypropyl)amino)pyrimidin-4-yl)-1H-imidazol-2-yl)methyl)phenyl)-1-phenyl-5-(trifluoromethyl)-1H-pyrazole-4-carboxamide] | 6.39 µM | 25.8 µM |  | 
C[C@H](O)CNc1nccc(-n2ccnc2C(=O)c2cccc(NC(=O)c3cccc(C(F)(F)F)c3)c2)n1 [Example 25, (S)—N-(3-(1-(2-((2-hydroxypropyl)amino)pyrimidin-4-yl)-1H-imidazole-2-carbonyl)phenyl)-3-(trifluoromethyl)benzamide] | > 30 µM | 3.78 µM |  | 
C[C@H](O)CNc1nccc(-n2ccnc2C(=O)c2cccc(NC(=O)c3cc(N4CCN(C)CC4)cc(C(F)(F)F)c3)c2)n1 [Example 28, (S)—N-(3-(1-(2-((2-hydroxypropyl)amino)pyrimidin-4-yl)-1H-imidazole-2-carbonyl)phenyl)-3-(4-methylpiperazin-1-yl)-5-(trifluoromethyl)benzamide] | 27.8 µM |  |  | 
C[C@H](O)CNc1nccc(-n2ccnc2C(=O)c2cccc(NC(=O)c3cc(N4CCOCC4)cc(C(F)(F)F)c3)c2)n1 [Example 27, (S)—N-(3-(1-(2-((2-hydroxypropyl)amino)pyrimidin-4-yl)-1H-imidazole-2-carbonyl)phenyl)-3-morpholino-5-(trifluoromethyl)benzamide] |  | 4.9 µM |  | 
C[C@H](O)CNc1nccc(-n2ccnc2Cc2cccc(NC(=O)c3cc(N4CCOCC4)cc(C(F)(F)F)c3)c2)n1 [Example 20, (S)—N-(3-((1-(2-((2-hydroxypropyl)amino)pyrimidin-4-yl)-1H-imidazol-2-yl)methyl)phenyl)-3-morpholino-5-(trifluoromethyl)benzamide] | 6.6 µM | 9.7 µM |  | 
C[C@H](O)CNc1nccc(-n2ccnc2Cc2cccc(NC(=O)c3ccc(Cl)cc3)c2)n1 [Example 6, (S)-4-chloro-N-(3-((1-(2-((2-hydroxypropyl)amino)pyrimidin-4-yl)-1H-imidazol-2-yl)methyl)phenyl)benzamide] | 10.2 µM | > 30 µM |  | 
C[C@H](O)CNc1nccc(-n2ccnc2Cc2cccc(NC(=O)c3ccncc3)c2)n1 [Example 10, (S)—N-(3-((1-(2-((2-hydroxypropyl)amino)pyrimidin-4-yl)-1H-imidazol-2-yl)methyl)phenyl)isonicotinamide] | 8.92 µM |  |  | 
C[C@H](O)CNc1nccc(-n2ccnc2Cc2cccc(NC(=O)c3ccc(-c4ccccc4)cc3)c2)n1 [Example 12, (S)—N-(3-((1-(2-((2-hydroxypropyl)amino)pyrimidin-4-yl)-1H-imidazol-2-yl)methyl)phenyl)-[1,1′-biphenyl]-4-carboxamide] | 0.6 µM | 1.68 µM | large potencies; also recorded: better potencies than Sorafenib | large potencies; also recorded: better potencies than Sorafenib
C[C@H](O)CNc1nccc(-n2ccnc2Cc2cccc(NC(=O)c3ccc4[nH]nnc4c3)c2)n1 [Example 9, (S)—N-(3-((1-(2-((2-hydroxypropyl)amino)pyrimidin-4-yl)-1H-imidazol-2-yl)methyl)phenyl)-1H-benzo[d][1,2,3]triazole-5-carboxamide] | > 30 µM | 18.5 µM |  | 
C[C@H](O)CNc1nccc(-n2ccnc2Cc2cccc(NC(=O)c3ccccc3Sc3ccccc3C#N)c2)n1 [Example 15, (S)-2-((2-cyanophenyl)thio)-N-(3-((1-(2-((2-hydroxypropyl)amino)pyrimidin-4-yl)-1H-imidazol-2-yl)methyl)phenyl)benzamide] |  | 10 µM |  | 
C[C@H](O)CNc1nccc(-n2ccnc2C(=O)c2ccc(NC(=O)Nc3ccc(Cl)c(C(F)(F)F)c3)cc2)n1 [Example 38, (S)-1-(4-chloro-3-(trifluoromethyl)phenyl)-3-(4-(1-(2-((2-hydroxypropyl)amino)pyrimidin-4-yl)-1H-imidazole-2-carbonyl)phenyl)urea] | > 30 µM | 7.45 µM |  | 
C[C@H](O)CNc1nccc(-n2ccnc2Cc2cccc(NC(=O)c3ccc(Cl)c(C(F)(F)F)c3)c2)n1 [Example 19, (S)-4-chloro-N-(3-((1-(2-((2-hydroxypropyl)amino)pyrimidin-4-yl)-1H-imidazol-2-yl)methyl)phenyl)-3-(trifluoromethyl)benzamide] | 3.3 µM | 6.83 µM | large potencies | large potencies
C[C@H](O)CNc1nccc(-n2ccnc2C(=O)c2ccc(NC(=O)c3cccc(Cl)c3)cc2)n1 [Example 34, (S)-3-chloro-N-(4-(1-(2-((2-hydroxypropyl)amino)pyrimidin-4-yl)-1H-imidazole-2-carbonyl)phenyl)benzamide] | 5.92 µM |  |  | 

Further lines, with some results ahead:

GI50 [1] | GI50 [2] | SMILES | potency against A375P, in words [1] | potency against U937, in words [2]
19.2 µM | 1.73 µM | C[C@H](O)CNc1nccc(-n2ccnc2Cc2cccc(NC(=O)Nc3cccc(Cl)c3)c2)n1 [Example 21, (S)-1-(3-chlorophenyl)-3-(3-((1-(2-((2-hydroxypropyl)amino)pyrimidin-4-yl)-1H-imidazol-2-yl)methyl)phenyl)urea] |  | 
3.97 µM | 3.24 µM | C[C@H](O)CNc1nccc(-n2ccnc2Cc2cccc(NC(=O)C(c3ccc(Cl)cc3)c3ccc(Cl)cc3)c2)n1 [Example 17, (S)-2,2-bis(4-chlorophenyl)-N-(3-((1-(2-(2-hydroxypropylamino)pyrimidin-4-yl)-1H-imidazol-2-yl)methyl)phenyl)acetamide] |  | 
9.39 µM | 2.55 µM | COc1ccc(-c2ccc(C(=O)Nc3cccc(C(=O)c4nccn4-c4ccnc(NC[C@H](C)O)n4)c3)o2)cc1 [Example 26, (S)—N-(3-(1-(2-((2-hydroxypropyl)amino)pyrimidin-4-yl)-1H-imidazole-2-carbonyl)phenyl)-5-(4-methoxyphenyl)furan-2-carboxamide] |  | 
> 30 µM | 14.7 µM | C[C@H](O)CNc1nccc(-n2ccnc2C(=O)c2ccc(NC(=O)c3cc(N4CCN(C)CC4)cc(C(F)(F)F)c3)cc2)n1 [Example 36, (S)—N-(4-(1-(2-((2-hydroxypropyl)amino)pyrimidin-4-yl)-1H-imidazole-2-carbonyl)phenyl)-3-(4-methylpiperazin-1-yl)-5-(trifluoromethyl)benzamide] |  | 
12.3 µM | > 30 µM | C[C@H](O)CNc1nccc(-n2ccnc2Cc2cccc(NC(=O)c3cc(N4CCN(C)CC4)cc(C(F)(F)F)c3)c2)n1 [Example 1, (S)—N-(3-((1-(2-((2-hydroxypropyl)amino)pyrimidin-4-yl)-1H-imidazol-2-yl)methyl)phenyl)-3-(4-methylpiperazin-1-yl)-5-(trifluoromethyl)benzamide] |  | 
26.2 µM | 15.3 µM | C[C@H](O)CNc1nccc(-n2ccnc2Cc2cccc(NC(=O)Nc3ccc(Cl)c(Cl)c3)c2)n1 [Example 22, (S)-1-(3,4-dichlorophenyl)-3-(3-((1-(2-((2-hydroxypropyl)amino)pyrimidin-4-yl)-1H-imidazol-2-yl)methyl)phenyl)urea] |  | 
11.2 µM | 10 µM | C[C@H](O)CNc1nccc(-n2ccnc2Cc2cccc(NC(=O)Cc3ccc(-c4ccccc4)cc3)c2)n1 [Example 11, (S)-2-([1,1′-biphenyl]-4-yl)-N-(3-((1-(2-((2-hydroxypropyl)amino)pyrimidin-4-yl)-1H-imidazol-2-yl)methyl)phenyl)acetamide] |  | 
7.07 µM |  | C[C@H](O)CNc1nccc(-n2ccnc2C(=O)c2ccc(NC(=O)c3ccc(Cl)cc3)cc2)n1 [Example 33, (S)-4-chloro-N-(4-(1-(2-((2-hydroxypropyl)amino)pyrimidin-4-yl)-1H-imidazole-2-carbonyl)phenyl)benzamide] |  | 
3.4 µM | 2.74 µM | CNC(=O)c1cc(Oc2ccc(NC(=O)Nc3ccc(Cl)c(C(F)(F)F)c3)cc2)ccn1 [Sorafenib, reference compound] |  | 
 | 23.6 µM | Cc1c(C)c2c(c(C)c1O)CC[C@](C)(C(=O)Nc1cccc(Cc3nccn3-c3ccnc(NC[C@H](C)O)n3)c1)O2 [Example 16, (R)-6-hydroxy-N-(3-((1-(2-(((S)-2-hydroxypropyl)amino)pyrimidin-4-yl)-1H-imidazol-2-yl)methyl)phenyl)-2,5,7,8-tetramethylchromane-2-carboxamide] |  | 
> 30 µM | 11.6 µM | C[C@H](O)CNc1nccc(-n2ccnc2C(=O)c2ccc(NC(=O)Nc3ccc(Cl)c(Cl)c3)cc2)n1 [Example 39, (S)-1-(3,4-dichlorophenyl)-3-(4-(1-(2-((2-hydroxypropyl)amino)pyrimidin-4-yl)-1H-imidazole-2-carbonyl)phenyl)urea] |  | 
7.45 µM | > 30 µM | C[C@H](O)CNc1nccc(-n2ccnc2Cc2cccc(NC(=O)Cc3ccccc3F)c2)n1 [Example 4, (S)-2-(2-fluorophenyl)-N-(3-((1-(2-((2-hydroxypropyl)amino)pyrimidin-4-yl)-1H-imidazol-2-yl)methyl)phenyl)acetamide] |  | 
